Columns and labels:
ykt6 SNARE complexes = assay: Co-IP of GFP-ykt6 SNARE assemblies in FTI-treated SH-SY5Y cells; type: cell-based, human; details: SH-SY5Y cells expressing GFP-ykt6 wt; 5 nM, 5d
Procedure: (§1) FIGS. 5A, 5B, 5C, 5D, 5E, 5F, and 5G. Reducing farnesyl-ykt6 enhances SNARE assembly and improves the lysosomal targeting of GCase. 5A) Ykt6 membrane shift analysis of SH-SY5Y cells expressing GFP-ykt6 wt or CS (n=3). 5B) Co-IP of GFP-ykt6 and bet1 in A53T iPSn (n=3). 5C) Ykt6 membrane shift analysis in FTI-treated SH-SY5Y wt a-syn cells or A53T iPSn (5 nM farnesyltransferase inhibitors (FTI) LNK-754 (FTI-1) or LNK-3248 (FTI-2) for 5 days) (n=4). Sec22b was measured to assess specificity. 5D) SEC/western blot of FTI-1 treated SH-SY5Y cells. Quantification is shown below. 5E) Co-IP of GFP-ykt6 wt or mutant ykt6-SS, (cannot be palmitoylated or farnesylated) in FTI-treated SHSY5Y cells (5 nM LNK-754, 5d) (n=2). 5F) Immunofluorescence of GCase and LAMP2A in FTI-treated H4 a-syn cells transfected with scrambled (scrb) or ykt6 shRNA (n=3). Scale bar=10 um. 5G) GCase maturation analysis in FTI-treated A53T iPSn by endo H (n=3). Values are the mean+/−SEM, *p<0.05.
To co-IP ykt6 SNARE assemblies, approximately 106-107 cells expressing GFP-tagged YKT6, were harvested in 1 ml of PBS, scraped off the plate and transferred to centrifuge tubes. The cells were subjected to centrifugation 200×g for 5 m at 4° C. […] Eluates were analyzed by western blot as described below. The samples were not analyzed in a blinded manner.

GCase = assay: Analysis of post-ER GCase (endo H resistance) in FTI-treated cultures; type: cell-based, human; details: A53T iPSn and SHSY5Y cells
Procedure: as §1, with “5F) Immunofluorescence of GCase and LAMP2A in FTI-treated H4 a-syn cells transfected with scrambled (scrb) or ykt6 shRNA (n=3). Scale bar=10 um. 5G) GCase maturation analysis in FTI-treated A53T iPSn by endo H (n=3). Values are the mean+/−SEM, *p<0.05.” left out
FIGS. 14A, 14B, 14C, 14D, 14E, 14F, and 14G. […] 14A) Farnesylation of ykt6 was measured in SH-SY5Y cells expressing GFP-ykt6. […] Biotin was detected with streptavidin-conjugated IRDye800, and normalized to total levels of GFP-ykt6. […] Ykt6 complex levels eluting at ca. 120A were quantified on the right (n=2). […] 14E) Raw quantification data of LAMP2A immunofluorescence intensity of individual cells from H4 cells treated with FTI, +/−ykt6 KD. […] For all quantifications, values are the mean+/−SEM, *p<0.05.
Analysis of post-ER GCase. […] Endo H resistant bands migrating at 62-64 kDa were measured as post-ER forms of GCase, and normalized to GAPDH levels. […]

C#Cc1cccc(-c2cc(=O)n(C)c3ccc([C@](O)(c4ccc(Cl)cc4)c4cncn4C)cc23)c1 [LNK-754]
ykt6 SNARE complexes by co-IP (ykt6 SNARE complexes): increased ykt6 SNARE complexes | mature, endo H-resistant GCase (GCase): significantly elevated
